Legend:
[1] = test system: PBMC from peanut allergic and non-allergic donors (IL-5 production); assay: IL-5 ELISPOT with individual peptides after 14-day in vitro expansion (epitope mapping); format: cell-based, human; conditions: SFC per 10^6 PBMC, individual peptide 10 μg/ml, 24 h, after 14-day culture; for IL-5 Average SFC (controls): non-allergic controls; for IL-5 Average SFC (allergics): allergic donors
Description: (§1) For in vitro expansions, PBMCs were thawed and cultured in RPMI 1640 (Omega Scientific, Tarzana, CA) supplemented with 5% human AB serum (Gemini Bio-Products, West Sacramento, CA) at a density of 2 × 10^6 cells per mL in 24-well plates (Corning, San Diego, CA) and stimulated with peanut extract (10 μg/ml) or peptide pools at 5 μg/mL. Cells were kept at 37°C, 5% CO2, and additional IL-2 (10 U/mL; ThermoFisher, San Diego, CA) was added every 3 days after initial antigenic stimulation. On day 14, cells were harvested and reactivity against peanut extract (10 μg/ml), peanut specific peptide pools (5 μg/ml) and individual peptides (10 μg/ml) was assessed. The production of IL-5 and IFNγ post-stimulation with peanut extract was analyzed in dual ELISPOT assays. Flat-bottom 96-well nitrocellulose plates (Millipore, Bedford, MA) were prepared according to the manufacturer’s instructions and coated with either 10 μg/ml of both anti-human IL-5 (clone TRFK5) and anti-human IFNγ (clone 1-D1K) or anti-human IL-10 (clone 9D7) and anti-human IL-17 (clone MT44.6) (Mabtech, Cincinnati, OH). PBMC were then incubated at a density of 1 × 10^5/well either with peptide pools (5 μg/ml) or individual peptides (10 μg/ml), peanut extract (10 μg/ml), PHA (10 μg/ml), or medium containing 0.25% DMSO (corresponding to the highest percentage of DMSO in the pools/peptides condition) as a control. After 24 h, cells were removed, and plates were incubated with a cocktail containing either biotinylated anti-human IL-5 (1:50 dilution) (clone 5A10) and horseradish peroxidase (HRP)-conjugated anti-human IFNγ (1:200 dilution) (clone 7-B6-1) or biotinylated anti-human IL-17 (1:200 dilution) (clone MT504) anti-human alkaline phosphatase (AP)-conjugated IL-10 (1:200 dilution) (clone 12G8) (Mabtech, Cincinnati, OH) at 37°C. After 2 h, spots corresponding to the biotinylated IL-5 Ab were developed by incubation with Alkaline-phosphatase-Complex (Vector Laboratories, Burlingame, CA) and then visualized by applying the Vector Blue Alkaline Phosphatase Substrate Kit III (Vector Laboratories, Burlingame, CA) according to the manufacturer’s instructions. Spots corresponding to the HRP-conjugated anti-human IFNγ Ab were visualized by incubation with 3-amino-9-ethylcarvazole solution (Sigma-Aldrich, St. Louis, MO). Spots were counted by computer-assisted image analysis (KS-ELISPOT reader, Zeiss, Munich). Each assay was performed in triplicate. The level of statistical significance was determined with a Student t test using the mean of triplicate values of the response against relevant pools or individual peptides versus the response against the DMSO control. Criteria for response positivity were 20 spot-forming cells (SFCs)/10^6 PBMC, p ≤ 0.05, and a stimulation index (SI) ≥ 2. SFCs are measured per 10^5 PBMC, subsequently readings are background subtracted and multiplied by 10 to be expressed as SFC per million PBMC. T cell epitope mapping was performed to determine epitopes from the major peanut allergens Ara h 1, 2 and 3, recognized by peanut allergic (n = 11) and non-allergic (n = 10) donors. As these studies were performed with samples obtained from pediatric patients, available blood sample volumes were limiting. To overcome this limitation, small pools of predicted peptides matched to the HLA molecules expressed in each donor were tested. For each donor, class II binding affinity predictions were performed using algorithms available through the IEDB (www.iedb.org)[18], to identify the top 6 predicted binders for each of the alleles expressed at the four HLA class II loci (DRB1, DRB3/4/5, DQB1, and DPB1). Accordingly, the screening load for each donor was reduced from 400 peptides to a maximum of 48 peptides (6 peptides x ≤8 class II molecules, less for homozygous donors). The six top predicted peptides for each allele were used to generate allele-specific pools, which were in turn used to expand peanut-specific cells in vitro. […]

[2] = test system: PBMC from peanut allergic and non-allergic donors (IFNγ production); assay: IFNγ ELISPOT with individual peptides after 14-day in vitro expansion (epitope mapping); format: cell-based, human; conditions: SFC per 10^6 PBMC, individual peptide 10 μg/ml, 24 h, after 14-day culture; for IFNg Average SFC (controls): non-allergic controls; for IFNg Average SFC (allergics): allergic donors
Description: as §1

Sequence	IL-5 Average SFC (controls) [1] [SFC]	IFNg Average SFC (controls) [2] [SFC]	IL-5 Average SFC (allergics) [1] [SFC]	IFNg Average SFC (allergics) [2] [SFC]
NHRIVQIEARPNTLV [Ara h 1 15-mer, position 211]	427	303		
NNRKSFNLDEGHALR [Ara h 1 15-mer, position 251]	82	55		
NPINLREGEPDLSNN [Ara h 1 15-mer, position 396]	457	240		
NTNAHSIIYALRGRA [Ara h 3 15-mer, position 416; P19 pool member]	163	77	32	0
PHFNSKAMVIVVINK [Ara h 1 15-mer, position 446]	0	58	41	15
PHFNSKAMVIVVVNK [Ara h 1 15-mer, position 446]	0	0	113	0
QAGENSIIDNLPEEV [Ara h 3 15-mer, position 461; P19 pool member]	33	0	79	61
QEFECAGVALSRLVL [Ara h 3 15-mer, position 61]	138	0		
QEFLQHAFQVDRQTV [Ara h 3 15-mer, position 246]	2210	390	57	0
QEFLRYQQQQGSRPH [Ara h 3 15-mer, position 206]	144	61	0	13
QEFLRYQQQSRQSRR [Ara h 3 15-mer, position 206; P19 pool member]	47	72	295	15
QEFQCAGVALSRTVL [Ara h 3 15-mer, position 61]	98	34		
QGRGYFGLIFPGCPS [Ara h 3 15-mer, position 96]	43	0	0	0
QRSKQFQNLQNHRIV [Ara h 1 15-mer, position 201; P19 pool member]	171	65	0	0
QRSRQFQNLQNHRIV [Ara h 1 15-mer, position 201]	216	102	0	0
QSDNFEYVAFKTDSR [Ara h 3 15-mer, position 466; P19 pool member]	123	373	164	0
QSENYEYLAFKTDSR [Ara h 3 15-mer, position 441]	419	95	0	0
RCTKLEYDPRCVYDT [Ara h 1 15-mer, position 61]	467	820	195	0

Sequence	IL-5 Average SFC (controls) [1] [SFC]	IFNg Average SFC (controls) [2] [SFC]	IL-5 Average SFC (allergics) [1] [SFC]	IFNg Average SFC (allergics) [2] [SFC]
RLKEGDVFIMPAAHP [Ara h 1 15-mer, position 503]	120	83		
RNNPFYFPSRRFSTR [Ara h 1 15-mer, position 171]			100	0
RRFYLAGNQEQEFLR [Ara h 3 15-mer, position 196]	750	90	0	0
RSSENNEGVIVEVSK [Ara h 1 15-mer, position 356]	40	0		
SGFAQEFLQHAFQVD [Ara h 3 15-mer, position 242]	97	88	124	0
SGFTPEFLAQAFQVD [Ara h 3 15-mer, position 266; P19 pool member]	240	81	394	0
SIIYALRGRAHVQVV [Ara h 3 15-mer, position 421; P19 pool member]	358	249	400	89
SNAPQEIFIQQGRGY [Ara h 3 15-mer, position 86]	45	0		
SNREVRRYTARLKEG [Ara h 1 15-mer, position 493]	527	108	20	42
SPLMLLLGILVLASV [Ara h 1 15-mer, position 6]	30	0	0	0
SRLVLRRNALRRPFY [Ara h 3 15-mer, position 71; P19 pool member]	941	341	27	19
SRTVLRRNALRRPFY [Ara h 3 15-mer, position 71]	647	377		
SSELHLLGFGINAEN [Ara h 1 15-mer, position 523]	0	0	492	0
TIVVALNGRAHVQVV [Ara h 3 15-mer, position 396]	567	548	148	415
TLNAHTIVVALNGRA [Ara h 3 15-mer, position 391]	64	61	97	16
VTVKGGLRILSPDEE [Ara h 3 15-mer, position 276]	653	433		
VTVRGGLRILSPDRK [Ara h 3 15-mer, position 301]	44	93	196	19

Reference: PMC6179248, “Peanut-specific T cell responses in patients with different clinical reactivity” (PLoS ONE, 2018)
